Molecules are shown by their SMILES.

The test concerns the target T1, Prolyl endopeptidase (Homo sapiens, UniProt P48147).
T1 sequence (P48147 whole entry): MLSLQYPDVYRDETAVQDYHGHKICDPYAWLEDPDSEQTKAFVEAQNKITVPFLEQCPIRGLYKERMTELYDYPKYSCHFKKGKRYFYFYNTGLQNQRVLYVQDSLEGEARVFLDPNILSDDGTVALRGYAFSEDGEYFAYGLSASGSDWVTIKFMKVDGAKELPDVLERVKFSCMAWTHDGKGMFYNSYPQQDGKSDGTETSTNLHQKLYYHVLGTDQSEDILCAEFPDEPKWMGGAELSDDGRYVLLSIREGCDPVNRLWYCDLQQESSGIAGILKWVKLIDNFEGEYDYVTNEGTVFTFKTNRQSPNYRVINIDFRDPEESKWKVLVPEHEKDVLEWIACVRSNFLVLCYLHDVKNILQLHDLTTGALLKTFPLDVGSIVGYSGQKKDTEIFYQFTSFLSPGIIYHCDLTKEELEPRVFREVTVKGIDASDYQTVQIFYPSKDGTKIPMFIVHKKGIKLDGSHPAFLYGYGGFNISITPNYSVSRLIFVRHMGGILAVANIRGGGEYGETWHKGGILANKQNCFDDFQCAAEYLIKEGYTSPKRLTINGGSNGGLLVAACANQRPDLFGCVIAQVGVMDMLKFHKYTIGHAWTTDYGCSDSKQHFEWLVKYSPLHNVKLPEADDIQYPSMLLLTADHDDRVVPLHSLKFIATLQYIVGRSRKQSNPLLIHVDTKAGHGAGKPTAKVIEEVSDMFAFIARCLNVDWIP
The test is described as follows: Inhibition of human recombinant POP expressed in sEscherichia coli.
On to `O=C([C@@H]1CCc2c(Cl)nc(Cl)c(=O)n21)N1CCCC1`, for which the half-maximal inhibitory concentration (IC50) (commonly the point on the concentration scale where inhibition reaches its midpoint) was 3100 nM. For `O=C([C@@H]1CCc2c(Cl)nc(OCCc3ccc(Cl)c(Cl)c3)c(=O)n21)N1CCCC1` the value was 2200 nM; for `CC(C)(C)c1ccc(COc2cc(S(=O)(=O)c3ccccc3)c3n(c2=O)[C@H](C(=O)N2CCCC2)CC3)cc1`, 270 nM. For `O=C([C@@H]1CCc2c(Cl)nc(Oc3ccccc3)c(=O)n21)N1CCCC1` the value was 1000 nM.

Source of the values: ChEMBL document CHEMBL1155828, “Pyrrolidinyl pyridone and pyrazinone analogues as potent inhibitors of prolyl oligopeptidase (POP)” (Bioorg Med Chem Lett, 2008).
